In PubChem BioAssay AID2060599 (Molecular Pharmacology Branch, DTP, NCI, 2025):

Tested on: 817829-284-R-J1-PDC complex spheroids, viability
Assay: Anticancer human tumor 817829-284-R-J1-PDC patient-derived colon adenocarcinoma cell line growth inhibition [CLK]
Details: for IC50: curve of first compound; for viability, T/C: stronger effect = lower value
In short: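 Patient-derived tumor cells grown as complex spheroids with HUVEC endothelial cells and mesenchymal stem cells, treated with drug combinations. Concentrations descend in half-log steps from near clinical Cmax, or from 10 microM if Cmax unknown.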
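Also: spheroids exposed to the agents for seven days before readout.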

- IC50 (second compound 0.0316 µM): < 31.6 nM
- IC50 (second compound 0.1 µM): < 31.6 nM
- IC50 (second compound 0.316 µM): < 31.6 nM
- IC50 (second compound 1 µM): < 31.6 nM
- IC50 (second compound 3.16 µM): < 31.6 nM
- IC50 (second compound 10 µM): < 31.6 nM
SMILES: CC(=O)O[C@H]1C(=O)[C@@]2(C)[C@H]([C@H](OC(=O)c3ccccc3)[C@]3(O)C[C@H](OC(=O)[C@H](O)[C@@H](NC(=O)c4ccccc4)c4ccccc4)C(C)=C1C3(C)C)[C@]1(OC(C)=O)CO[C@@H]1C[C@@H]2O + CNC(=O)c1ccc(Nc2nc(OC3CCCC3)c3c(-c4ccc5nc(C)oc5c4)c[nH]c3n2)c(OC)c1
- viability, T/C (second compound 0.0316 µM, first compound 0.0316 µM): 10.8%
- viability, T/C (second compound 0.0316 µM, first compound 0.1 µM): 11.5%
- viability, T/C (second compound 0.0316 µM, first compound 0.316 µM): 10.8%
- viability, T/C (second compound 0.0316 µM, first compound 1 µM): 10.6%
- viability, T/C (second compound 0.0316 µM, first compound 3.16 µM): 11.6%
- viability, T/C (second compound 0.0316 µM, first compound 10 µM): 16.2%
- viability, T/C (second compound 0.1 µM, first compound 0.0316 µM): 24.2%
- viability, T/C (second compound 0.1 µM, first compound 0.1 µM): 25.3%
- viability, T/C (second compound 0.1 µM, first compound 0.316 µM): 20.2%
- viability, T/C (second compound 0.1 µM, first compound 1 µM): 23.8%
- viability, T/C (second compound 0.1 µM, first compound 3.16 µM): 28.9%
- viability, T/C (second compound 0.1 µM, first compound 10 µM): 26.8%
- viability, T/C (second compound 0.316 µM, first compound 0.0316 µM): 29.5%
- viability, T/C (second compound 0.316 µM, first compound 0.1 µM): 31.6%
- viability, T/C (second compound 0.316 µM, first compound 0.316 µM): 43.8%
- viability, T/C (second compound 0.316 µM, first compound 1 µM): 38.9%
- viability, T/C (second compound 0.316 µM, first compound 3.16 µM): 45.1%
- viability, T/C (second compound 0.316 µM, first compound 10 µM): 32.6%
- viability, T/C (second compound 1 µM, first compound 0.0316 µM): 31.7%
- viability, T/C (second compound 1 µM, first compound 0.1 µM): 23.7%
- viability, T/C (second compound 1 µM, first compound 0.316 µM): 24%
- viability, T/C (second compound 1 µM, first compound 1 µM): 30.4%
- viability, T/C (second compound 1 µM, first compound 3.16 µM): 22.6%
- viability, T/C (second compound 1 µM, first compound 10 µM): 22.8%
- viability, T/C (second compound 3.16 µM, first compound 0.0316 µM): 26.2%
- viability, T/C (second compound 3.16 µM, first compound 0.1 µM): 23.9%
- viability, T/C (second compound 3.16 µM, first compound 0.316 µM): 17.7%
- viability, T/C (second compound 3.16 µM, first compound 1 µM): 20.1%
- viability, T/C (second compound 3.16 µM, first compound 3.16 µM): 23.3%
- viability, T/C (second compound 3.16 µM, first compound 10 µM): 23.3%
- viability, T/C (second compound 10 µM, first compound 0.0316 µM): 18.6%
- viability, T/C (second compound 10 µM, first compound 0.1 µM): 23.3%
- viability, T/C (second compound 10 µM, first compound 0.316 µM): 29.5%
- viability, T/C (second compound 10 µM, first compound 1 µM): 24.3%
- viability, T/C (second compound 10 µM, first compound 3.16 µM): 20.5%
- viability, T/C (second compound 10 µM, first compound 10 µM): 19.9%
